These results are taken from patent US12195424B2, “Antibiotic compounds” (The General Hospital Corporation, priority 2017, dated 2025).

The structures appear in SMILES notation. Read-outs that look alike come from different tables or passages of the source.

The nature of data set [1]: Cytotoxicity (WST-1) in a panel of human cell lines. Type of data set: cell-based. The following applies: panel of human cell lines, serum-free media, 24 h; read-out: LC50. On the procedure:
(§1) Cytotoxicity. Cryopreserved rat and human primary hepatocytes were purchased from the Cell Resource Core at Massachusetts General Hospital (Boston, MA, USA). The hepatocytes were cultured in a collagen sandwiched configuration in 24-well plates, as described previously. Briefly, 4×10^5 live cells were seeded in 24-well plates coated with rat tail collagen type I. Plates were incubated in a humidified 5% CO2 incubator at 37° C. for 4 h to allow cells to attach to the collagen gel. […] The cell cultures were incubated in a humidified 5% CO2 incubator at 37° C.
(§2) For cytotoxicity tests, HepG2, RPTEC, and NHEK were cultured at 70-80% confluence in tissue culture treated 96-well plates in a volume of 100 μl/well corresponding culture media. To test cytotoxicity in the absence of serum, all cells were washed twice with PBS and then once with the serum-free corresponding culture media. […] WST-1 reduction was measured at 450 nm. The percent fluorescence relative to that of the no-treatment control was calculated. The assay was done in triplicate.
A general note: Tetrazolium assays rely on reduction of a dye to a coloured formazan, in cell work by metabolically active cells.

The subject of data set [2] is panel of human cell lines. The description is as above. The following applies: compared with CD437, in words. It counts as cell-based. Here is the method:
as §1, §2

Data set [3] is described as follows: Pharmacokinetic analysis. Type of data set: in vivo, mice. The following applies: for half-life: 20 mg/kg. Here is the method:
Pharmacokinetic analysis. Pharmacokinetic experiments were conducted by SAI Life Sciences Ltd. (Pune, India) in accordance with guidelines provided by the Committee for the Purpose of Control and Supervision of Experiments on Animals (CPCSEA). The Institutional Animal Ethics Committee (IAEC) approved the experimental protocol. In brief, healthy female CD1 mice (6 weeks old) weighing between 20 to 25 g were procured from Hylasco (Hyderabad, India). Analog 2 was dissolved in a 1:1 solution of Kolliphor EL (Sigma-Aldrich, St Louis, MO, USA) and ethanol and then diluted 1:10 in saline to a final concentration of 2 mg/ml. Groups of mice (n=3) were treated with 20 mg/kg Analog 2 (i.p.). Blood samples were collected as terminal a bleed under light isoflurane anesthesia through a cardiac puncture such that samples were obtained at pre-dose, 0.08, 0.25, 0.5, 1, 2, 4, 8 & 24 h. Immediately after collection, plasma was harvested by centrifugation and stored at −70° C. until analysis. All samples were processed for analysis by protein precipitation using acetonitrile and analyzed with fit-for-purpose LC/MS/MS method (LLOQ=4.90 ng/mL for plasma). Pharmacokinetic parameters were calculated using the non-compartmental analysis tool of Phoenix WinNonlin (Version 6.3). No statistical methods were used to predetermine samples size. The experiments were not randomized, and investigators were not blinded to allocation during experiments and outcome assessment. Outliers were determined based on Grubb's test using GraphPad Prism 7 (GraphPad Software, La Jolla, CA, USA).

In data set [4] the test system is S. aureus MW2. The data set is described as follows: Deep-seated mouse thigh infection model. The following applies: every 12 h for 3 days, p<0.001. Type of data set: in vivo, mice. On the procedure:
Deep-seated mouse thigh infection model for evaluating drug efficacy. A previously described protocol to mimic a chronic, deep-tissue infection was used with modifications. Six-week-old female CD1 ICR outbred mice (20-25 g) were obtained from Charles River Laboratories (Wilmington, MA, USA). To make mice neutropenic, 150 mg/kg and 100 mg/kg of cyclophosphamide were administered via i.p. injection at 4 days and 1 day before infection, respectively. On the day of infection, ˜10^5 cells of stationary-phase S. aureus MW2 suspended in 50 μl of saline were injected to the right thigh of each mouse. To test the efficacy of CD437, the compound was dissolved in a 1:1 solution of Kolliphor EL (Sigma-Aldrich, St Louis, MO, USA) and ethanol and then diluted 1:10 in saline to a final concentration of […]. […] At 24 h post-infection, groups of mice (n=10) were treated with 30 mg/kg gentamicin subcutaneously (s.c.), 25 mg/kg vancomycin i.p., 20 mg/kg CD437 i.p., or a combination of 20 mg/kg CD437 i.p. and 30 mg/kg gentamicin s.c. every 12 h for 3 days. Control mice were injected with 200 μl of 10% Kolliphor EL/ethanol in saline i.p. every 12 h for 3 days. For testing the efficacy of Analog 2, the compound was dissolved in a 1:1 solution of Kolliphor EL (Sigma-Aldrich, St Louis, MO, USA) and ethanol and then diluted 1:10 in saline to a final concentration of 4 mg/ml. […] Serum was analyzed for alanine aminotransferase and urea nitrogen content with commercially available kits, following the manufacturer's protocol (Pointe Scientific, Canton, MI, USA). […] The bacterial burden was recorded as CFU/g tissue. A sample size of 10 mice per group was calculated for a single-tailed power analysis using a standard deviation based on our historical data and the literature in consultation with the Rhode Island Hospital Biostatistics Core. […] Statistical significance among each group was analyzed by one-way ANOVA with post-hoc Tukey test using PASW Statistics 18 (SPSS Inc. Chicago, IL, USA) and GraphPad Prism 7 (GraphPad Software, La Jolla, CA, USA).

Data set [5] relates to Cutibacterium (Propionibacterium) acnes. The data set is described as follows: Morphology of treated P. acnes bacteria. Type of data set: cell-based. The following applies: in words (FIG. 13).

As for `OCc1ccc2cc(-c3ccc(O)c(C45CC6CC(CC(C6)C4)C5)c3)ccc2c1` [Analog 2, 2-(adamantan-1-yl)-4-(6-(hydroxymethyl)naphthalen-2-yl)phenol], the CC50 at 24 h in data set [1] is at least 31 µg/mL. Further, the cytotoxicity result in data set [2] is given as “significantly reduced”. Moreover, in data set [3] (female, CD1, mouse, ip, mice, single injection 20 mg/kg i.p., plasma, read-out: AUCinf (area under the curve to infinite)), the AUC(0-inf) stood at 16500 ng·h/mL. In addition, the AUC(0-t) in data set [3] (female, CD1, mouse, ip, mice, single injection 20 mg/kg i.p., plasma, read-out: AUClast (area under the curve to last time point)) was found to be 16400 ng·h/mL. The Cmax in data set [3] (female, CD1, mouse, ip, mice, single injection 20 mg/kg i.p., plasma, read-out: Cmax (maximum concentration observed)) was found to be 16100 ng/mL. Also, the Tmax in data set [3] (female, CD1, mouse, ip, mice, single injection 20 mg/kg i.p., plasma, read-out: Tmax (the time taken to reach the maximum concentration)) was 0.5 h. Further, the half-life in data set [3] (female, CD1, mouse, plasma, ip, intraperitoneal single dose of 20 mg/kg, as stated in Example 3, read-out: elimination half-life (converted)) is 4.5 h; in data set [3] (female, CD1, mouse, plasma, ip, mice, single injection 20 mg/kg i.p., plasma, read-out: T1/2 (Half-life) (converted)), 4.49 h. The maximum plasma concentration in data set [3] (intraperitoneal single dose of 20 mg/kg, as stated in Example 3) is around 10 µg/mL. Moreover, the “CL (clearance)” value in data set [3] (mice, single injection 20 mg/kg i.p., plasma) came to 20.16 mL/min/kg. For the same molecule, the “decrease in bacterial burden” value in data set [4] (40 mg/kg i.p. in combination with 30 mg/kg gentamicin s.c.) is recorded as around 1 log; in data set [4] (80 mg/kg i.p. alone), around 1 log; in data set [4] (80 mg/kg i.p. in combination with 30 mg/kg gentamicin s.c.), around 2 log. Moreover, the morphology of bacteria entry in data set [5] is “altered and elongated”.
